Laboratory results from ChEMBL document CHEMBL5257097, “An Isomer of Galidesivir That Potently Inhibits Influenza Viruses and Members of the Bunyavirales Order” (ACS Med Chem Lett, 2023).

Tests used:
[1] = test system: Middle East respiratory syndrome-related coronavirus; experiment: Antiviral activity against MERS-CoV infected in vervet monkey MA-104 cells assessed as reduction in virus-induced cytopathic effect measured after 15 to 30 mins by visual analysis; type: functional, organism-based; conditions: MA104
[2] = Selectivity index, ratio of CC50 for cytotoxicity against African green monkey Vero 76 cells infected with Zika virus assessed as reduction in cell viability by neutral red dye based analysis to EC50 for antiviral activity against Zika virus infected in African green monkey Vero 76 cells assessed as reduction in virus-induced cytopathic effect by neutral red based spectrophotometric analysis; type: toxicity; conditions: read-out: Ratio CC50/EC50
Influenza A virus [3] = experiment: Antiviral activity against Influenza A virus H1N1 infected in dog MDCK cells assessed as reduction in virus-induced cytopathic effect measured after 15 to 30 mins by neutral red based analysis; type: functional, organism-based
[4] = Cytotoxicity against African green monkey Vero 76 cells infected with Rift valley fever virus assessed as reduction in cell viability by visual analysis; type: toxicity, cell-based; conditions: chlorocebus sabaeus
[5] = (§1) Selectivity index, ratio of CC50 for cytotoxicity against African green monkey Vero cells infected with DENV-2 assessed as reduction in cell viability by neutral red analysis to EC50 for antiviral activity against DENV-2 infected in human Huh-7 cells assessed as reduction in virus-induced cytopathic effect by neutral red analysis; type: toxicity, cell-based; conditions: read-out: Ratio CC50/EC50
Influenza A virus [6] = experiment: Antiviral activity against Influenza A virus H1N1 infected in dog MDCK cells assessed as reduction in virus-induced cytopathic effect measured after 15 to 30 mins by visual analysis; type: functional, organism-based
Zika virus [7] = experiment: Antiviral activity against Zika virus infected in African green monkey Vero 76 cells assessed as reduction in virus-induced cytopathic effect measured after 15 to 30 mins by visual analysis; type: functional, organism-based
dengue virus type 2 [8] = experiment: Antiviral activity against DENV-2 infected in African green monkey Vero cells assessed as reduction in virus-induced cytopathic effect measured after 15 to 30 mins by neutral red based analysis; type: functional, organism-based
[9] = Cytotoxicity against vervet monkey MA-104 cells infected with MERS-CoV assessed as reduction in cell viability by neutral red dye based assay; type: toxicity; conditions: cercopithecus pygerythrus
Yellow fever virus [10] = experiment: Antiviral activity against Yellow fever virus infected in human Huh-7 cells assessed as reduction in virus-induced cytopathic effect measured after 15 to 30 mins by visual analysis; type: functional, organism-based; conditions: huh-7
[11] = Cytotoxicity against vervet monkey MA-104 cells infected with MERS-CoV assessed as reduction in cell viability by visual assay; type: toxicity, cell-based; conditions: cercopithecus pygerythrus
[12] = Cytotoxicity against African green monkey Vero cells infected with DENV-2 assessed as reduction in cell viability by neutral red dye based assay; type: toxicity; conditions: chlorocebus sabaeus
[13] = Selectivity index, ratio of CC50 for cytotoxicity against African green monkey Vero 76 infected with Zika virus assessed as reduction in cell viability by visual analysis to EC50 for antiviral activity against Zika virus infected in African green monkey Vero 76 cells assessed as reduction in virus-induced cytopathic effect by visual analysis; type: toxicity, cell-based; conditions: Vero 76 cells infected with Zika virus, read-out: Ratio CC50/EC50
Rift Valley fever virus [14] = experiment: Antiviral activity against Rift valley fever virus infected in African green monkey Vero 76 cells assessed as reduction in virus-induced cytopathic effect measured after 15 to 30 mins by visual analysis; type: functional, organism-based
[15] = Cytotoxicity against African green monkey Vero 76 cells infected with Zika virus assessed as reduction in cell viability by visual analysis; type: toxicity, cell-based; conditions: chlorocebus sabaeus
[16] = Cytotoxicity against African green monkey Vero 76 cells infected with Zika virus assessed as reduction in cell viability by neutral red dye based assay; type: toxicity; conditions: chlorocebus sabaeus
[17] = Selectivity index, ratio of CC50 for cytotoxicity against African green monkey Vero 76 cells infected with Rift valley fever virus assessed as reduction in cell viability by neutral red dye based analysis to EC50 for antiviral activity against Rift valley fever virus infected in African green monkey Vero 76 cells assessed as reduction in virus-induced cytopathic effect by neutral red dye based analysis; type: toxicity; conditions: read-out: Ratio CC50/EC50
Zika virus [18] = experiment: Antiviral activity against Zika virus infected in African green monkey Vero 76 cells assessed as reduction in virus-induced cytopathic effect measured after 15 to 30 mins by neutral red based spectrophotometric analysis; type: functional, organism-based
[19] = Selectivity index, ratio of CC50 for cytotoxicity against African green monkey Vero 76 cells infected with Rift valley fever virus assessed as reduction in cell viability by visual analysis to EC50 for antiviral activity against Rift valley fever virus infected in African green monkey Vero 76 cells assessed as reduction in virus-induced cytopathic effect by visual analysis; type: toxicity, cell-based; conditions: read-out: Ratio CC50/EC50
[20] = Cytotoxicity against African green monkey Vero cells infected with DENV-2 assessed as reduction in cell viability by visual assay; type: toxicity, cell-based; conditions: chlorocebus sabaeus
[21] = as §1, with “visual” for “neutral red”; type: toxicity, cell-based; conditions: read-out: Ratio CC50/EC50
[22] = Selectivity index, ratio of CC50 for cytotoxicity against African green monkey Vero 76 cells infected with MERS-CoV assessed as reduction in cell viability by visual analysis to EC50 for antiviral activity against MERS-CoV infected in African green monkey Vero 76 cells assessed as reduction in virus-induced cytopathic effect by visual analysis; type: toxicity, cell-based; conditions: read-out: Ratio CC50/EC50
Rift Valley fever virus [23] = experiment: Antiviral activity against Rift valley fever virus infected in African green monkey Vero 76 cells assessed as reduction in virus-induced cytopathic effect measured after 15 to 30 mins by neutral red dye based analysis; type: functional, organism-based
[24] = Cytotoxicity against dog MDCK cells infected with Influenza A virus H1N1 assessed as reduction in cell viability by neutral red dye based assay; type: toxicity, Canis lupus familiaris
[25] = Cytotoxicity against African green monkey Vero 76 cells infected with Rift valley fever virus assessed as reduction in cell viability by neutral red dye based analysis; type: toxicity; conditions: chlorocebus sabaeus
[26] = Cytotoxicity against dog MDCK cells infected with Influenza A virus H1N1 assessed as reduction in cell viability by visual analysis; type: toxicity, cell-based, Canis lupus familiaris
[27] = Selectivity index, ratio of CC50 for cytotoxicity against African green monkey Vero 76 cells infected with MERS-CoV assessed as reduction in cell viability by neutral red dye based analysis to EC50 for antiviral activity against MERS-CoV infected in African green monkey Vero 76 cells assessed as reduction in virus-induced cytopathic effect by neutral red dye based analysis; type: toxicity; conditions: read-out: Ratio CC50/EC50
[28] = test system: Middle East respiratory syndrome-related coronavirus; experiment: Antiviral activity against MERS-CoV infected in vervet monkey MA-104 cells assessed as reduction in virus-induced cytopathic effect measured after 15 to 30 mins by neutral red dye based assay; type: functional, organism-based; conditions: MA104
dengue virus type 2 [29] = experiment: Antiviral activity against DENV-2 infected in African green monkey Vero cells assessed as reduction in virus-induced cytopathic effect measured after 15 to 30 mins by visual analysis; type: functional, organism-based
dengue virus type 2 [30] = experiment: Antiviral activity against DENV-2 infected in human Huh-7 cells assessed as reduction in virus-induced cytopathic effect measured after 15 to 30 mins by neutral red based analysis; type: functional, organism-based
Huh-7 [31] = experiment: Cytotoxicity against human Huh-7 cells infected with DENV-2 assessed as reduction in cell viability by visual analysis; type: functional
[32] = test system: Middle East respiratory syndrome-related coronavirus; experiment: Antiviral activity against MERS-CoV infected in African green monkey Vero 76 cells assessed as reduction in virus-induced cytopathic effect measured after 15 to 30 mins by neutral red dye based analysis; type: functional, organism-based
Huh-7 [33] = experiment: Cytotoxicity against human Huh-7 cells infected with Yellow fever virus assessed as reduction in cell viability by visual assay; type: functional
Yellow fever virus [34] = experiment: Antiviral activity against Yellow fever virus infected in human Huh-7 cells assessed as reduction in virus-induced cytopathic effect measured after 15 to 30 mins by neutral red based analysis; type: functional, organism-based
[35] = Cytotoxicity against African green monkey Vero 76 cells infected with MERS-CoV assessed as reduction in cell viability by neutral red dye based analysis; type: toxicity; conditions: chlorocebus sabaeus
Influenza A virus [36] = experiment: Antiviral activity against Influenza A virus H7N9 infected in dog MDCK cells; type: functional, organism-based
[37] = Cytotoxicity against dog MDCK cells infected with Influenza A virus H3N2; type: toxicity, cell-based, Canis lupus familiaris
Influenza A virus [38] = experiment: Antiviral activity against Influenza A virus H1N1 infected in dog MDCK cells; type: functional, organism-based
[39] = Cytotoxicity against dog MDCK cells infected with Influenza B virus; type: toxicity, cell-based, Canis lupus familiaris
[40] = Cytotoxicity against dog MDCK cells infected with Influenza A virus H1N1; type: toxicity, cell-based, Canis lupus familiaris
Influenza B virus = experiment: Antiviral activity against Influenza B virus infected in dog MDCK cells
Influenza A virus [41] = experiment: Antiviral activity against Influenza A virus H3N2 infected in dog MDCK cells; type: functional, organism-based
[42] = Selectivity index, ratio of CC50 for cytotoxicity against dog MDCK cells infected with Influenza A virus H1N1 assessed as reduction in cell viability by neutral red dye based analysis to EC50 for antiviral activity against Influenza A virus H1N1 infected in dog MDCK cells assessed as reduction in virus-induced cytopathic effect by neutral red dye based analysis; type: toxicity; conditions: read-out: Ratio CC50/EC50
[43] = Selectivity index, ratio of CC50 for cytotoxicity against human Huh-7 cells infected with Yellow fever virus assessed as reduction in cell viability by neutral red dye based assay to EC50 for antiviral activity against Yellow fever virus infected in human Huh-7 cells assessed as reduction in virus-induced cytopathic effect by neutral red based analysis; type: toxicity; conditions: read-out: Ratio CC50/EC50

Q: Which results are given for `Nc1ncnc2c([C@@H]3N[C@H](CO)[C@@H](O)[C@H]3O)n[nH]c12`?
A: EC50 [1]: 8.6 µM; selectivity ratio [2]: 1.1; EC50 (Influenza A virus [3]): > 100 µM; CC50 [4]: 8.3 µM; selectivity ratio [5]: 3.5; EC50 (Influenza A virus [6]): > 100 µM; EC50 (Zika virus [7]): 32 µM; EC50 (dengue virus type 2 [8]): 2.8 µM; CC50 [9]: 45 µM; EC50 (Yellow fever virus [10]): Not Active; CC50 [11]: 42 µM; CC50 [12]: 2.8 µM; selectivity ratio [13]: 3.1; EC50 (Rift Valley fever virus [14]): 4.2 µM; CC50 [15]: 100 µM; CC50 [16]: 13 µM; selectivity ratio [17]: 7.6; EC50 (Zika virus [18]): 12 µM; selectivity ratio [19]: 8.3; CC50 [20]: > 100 µM; selectivity ratio [21]: 3.1; selectivity ratio [22]: 4.9; EC50 (Rift Valley fever virus [23]): 4.2 µM; CC50 [24]: > 100 µM; CC50 [25]: > 100 µM; CC50 [26]: > 100 µM; selectivity ratio [27]: 4.5; EC50 [28]: 9.9 µM; EC50 (dengue virus type 2 [29]): 3.2 µM

Q: Which EC50 (Influenza A virus [3]) does the source give for `CC(C)OC(=O)[C@H](C)N[P@](=O)(OC[C@H]1N[C@@H](c2c[nH]c3c(N)ncnc23)[C@H](O)[C@@H]1O)Oc1ccccc1` here?
A: > 100 µM

Q: And the EC50 (dengue virus type 2 [30])?
A: > 100 µM

Q: What about the CC50 (Huh-7 [31]) of the same compound?
A: > 100 µM

Q: What about the EC50 [32] of the same compound?
A: > 100 µM

Q: And the CC50 (Huh-7 [33])?
A: > 100 µM

Q: What about the EC50 (Yellow fever virus [34]) of the same compound?
A: > 100 µM

Q: What about the EC50 (Rift Valley fever virus [23]) of the same compound?
A: > 100 µM

Q: And the CC50 [24]?
A: > 100 µM

Q: What about the CC50 [25] of the same compound?
A: > 100 µM

Q: And the CC50 [35]?
A: > 100 µM

Q: For `NC(=O)c1ncn([C@@H]2O[C@H](CO)[C@@H](O)[C@H]2O)n1` [RIBAVIRIN], which EC50 (Influenza A virus [36]) is on record?
A: 10 µM

Q: What about the CC50 [37] of the same compound?
A: > 1000 µM

Q: What about the EC50 (Influenza A virus [38]) of the same compound?
A: 1.9 µM

Q: And the CC50 [39]?
A: > 1000 µM

Q: And the CC50 [40]?
A: > 1000 µM

Q: And the EC50 (Influenza B virus)?
A: 1.9 µM

Q: And the EC50 (Influenza A virus [41])?
A: 1.9 µM

Q: Which selectivity ratio [42] does the source give for `CC(C)OC(=O)[C@H](C)N[P@](=O)(OC[C@H]1N[C@@H](c2ccc3c(N)ncnn23)[C@H](O)[C@@H]1O)Oc1ccccc1` here?
A: > 6.8

Q: What about the EC50 (Influenza A virus [3]) of the same compound?
A: 4.7 µM

Q: And the selectivity ratio [43]?
A: 9

Q: What about the EC50 (dengue virus type 2 [30]) of the same compound?
A: 1.1 µM

Q: What about the CC50 (Huh-7 [31]) of the same compound?
A: 9.9 µM

Q: And the EC50 [32]?
A: 13 µM

Q: What about the selectivity ratio [17] of the same compound?
A: > 32

Q: And the CC50 (Huh-7 [33])?
A: 9.9 µM

Q: What about the EC50 (Yellow fever virus [34]) of the same compound?
A: 3.6 µM

Q: And the EC50 (Rift Valley fever virus [23])?
A: 0.99 µM

Q: And the CC50 [24]?
A: > 32 µM

Q: What about the CC50 [25] of the same compound?
A: > 32 µM

Q: And the CC50 [35]?
A: 68 µM

Q: What about the selectivity ratio [27] of the same compound?
A: 5.2
